Assay [1] relates to H358 cells. Nature of the assay: Anti-cell proliferation experiment of H358 cell 3D model (soft agar). Type of assay: cell-based. The conditions noted are these: Homo sapiens, 336 h; NCI-H358, soft agar, 14 days co-incubation, Almar blue; read-out: Anti-proliferation inhibitory activity in H358 cell 3D model IC50. As to the method:
RPMI1640 medium, fetal bovine serum, and penicillin/streptomycin antibiotics were purchased from Wisent, and low-melting agarose was purchased from Sigma. Almar blue reagent was purchased from Invitrogen. NCI-H358 cell line was purchased from Nanjing CoBioer Co., Ltd. Nivo multi-label analyzer (PerkinElmer).
H358 cells were seeded into a 96-well U-shaped plate. First, low-melting agarose was prepared into a 2% stock solution. Before use, the agarose stock solution was heated in a microwave oven to completely melt it, and then placed in a 42° C. water bath to keep the agarose in a liquid state. The gel was added to the serum-containing medium to prepare a gel with a concentration of 0.6% as the bottom layer gel, which was then dispensed into the 96-well U-shaped plate at 50 μL per well. After the bottom layer gel solidifies, 2% gel was added to the cell-containing medium to prepare a cell-containing top layer gel with a gel concentration of 0.4%. The cell density was […], and 75 μL was added to each well of the 96-well U-shaped plate with the bottom layer gel, resulting in a cell density of 3000 cells per well. […]
On the day of compound addition, 85 μL of liquid medium is added to the 96-well U-shaped plate with pre-seeded cells. […] The readings were taken using a multi-label analyzer. […]

In assay [2] the target is T1, KRAS (G12C) and SOS1 (Homo sapiens, UniProt Q07889).
T1 sequence (Q07889 564-1049): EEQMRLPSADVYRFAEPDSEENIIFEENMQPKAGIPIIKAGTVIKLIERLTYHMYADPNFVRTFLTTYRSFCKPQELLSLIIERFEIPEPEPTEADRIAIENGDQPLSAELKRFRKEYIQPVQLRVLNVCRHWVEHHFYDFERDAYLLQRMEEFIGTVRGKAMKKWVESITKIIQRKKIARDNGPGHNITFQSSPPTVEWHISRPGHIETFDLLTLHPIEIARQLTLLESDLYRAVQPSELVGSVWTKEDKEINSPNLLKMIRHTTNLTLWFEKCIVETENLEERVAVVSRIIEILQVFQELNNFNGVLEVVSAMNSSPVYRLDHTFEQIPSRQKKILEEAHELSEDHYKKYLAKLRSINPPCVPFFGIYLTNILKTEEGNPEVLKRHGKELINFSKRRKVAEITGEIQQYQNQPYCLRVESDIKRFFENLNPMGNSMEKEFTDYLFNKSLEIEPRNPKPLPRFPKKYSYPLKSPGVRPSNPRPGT
Nature of the assay: KRAS (G12C) and SOS1 binding experiment (HTRF). The conditions noted are these: SOS1 exchange domain (564-1049), 25° C. for 60 min, read-out: KRAS (G12C) and SOS1 binding inhibitory activity IC50. As to the method:
The multi-functional microplate reader Nivo5 was purchased from PerkinElmer.
Preparation method: 4-hydroxyethylpiperazine ethyl sulfonate (Hepes): 5 mM; sodium chloride (NaCl): 150 mM; ethylenediaminetetraacetic acid (EDTA): 10 mM, CO-630 (Igepal): 0.0025%, potassium fluoride (KF): 100 mM; dithiothreitol (DTT): 1 mM; and bovine serum albumin (BSA): 0.05%.
1) The test compound was diluted five-fold using DMSO with a multi-channel pipette until the 8th concentration was achieved, starting from 1 mM and ending at 0.064 μM.
2) The various gradients of the test compound were diluted with 1 buffer to form working solutions containing 2% DMSO. 5 μL of each working solution was then dispensed into the corresponding wells, with a concentration gradient ranging from 20 μM to 0.00128 nM. Duplicate well experiment was set up for each concentration. Following this, the plate was centrifuged at 1000 rpm for 1 min.
3) A mixed working solution containing KRAS (G12C) at a concentration of 200 nM and Mab Anti GST-Eu cryptate at a concentration of […] was prepared using 1× buffer. […]
4) A mixed working solution containing SOS1 at a concentration of 80 nM and Mab Anti 6HIS-XL665 at a concentration of […] was prepared using 1× buffer. […] After the reaction was completed, the HTRF was read using a multi-label analyzer. […]
(TR-FRET usually uses a lanthanide donor and a delayed reading to cut background.)

Assay [3] concerns p-ERK in DLD-1 cells (KRAS G13D mutation). Put plainly: pERK expression levels in DLD-1 cells using HTRF. The class given is cell-based. The conditions noted are these: Homo sapiens, 1.5 h compound incubation, read-out: Inhibitory activity against p-ERK in DLD-1 cells IC50. The method, then:
The phosphorylation level of ERK protein in DLD-1 cells with KRAS G13D mutation was detected by the Homogeneous Time-Resolved Fluorescence (HTRF) method, and the IC50 and IC90 values of compounds are employed as indicators to evaluate the inhibitory activity of these compounds towards ERK phosphorylation within the RAS signaling pathway.
1) DLD-1 cells (50,000 cells/well) were seeded into a 96-well plate, and each well was filled with 90 μL of RPMI-1640 medium (10% fetal bovine serum), and then placed in a 37° C., 5% carbon dioxide incubator for overnight culture.
10 μL of DMSO-cell culture medium mixture were added to the solvent control and positive control, with a final DMSO concentration of 0.25%. The 96-well cell plate was then returned to the incubator for 1.5 h of culture.
4) The cell supernatant was removed, and 50 μL of 1× lysis buffer was immediately added, followed by shaking and incubation at room temperature for 30 min.
5) A pipette was used to blow and mix the solution evenly, and 16 μL of cell lysate was transferred from the 96-well plate to the HTRF 384-well detection plate.
6) 4 μL of pre-mixed antibody solution were added, the plate was sealed, and incubated at 4° C. The fluorescence emission intensities at 665 nm and 620 nm were detected using an HTRF plate reader. […]

Among the data in patent US20250230156A1, “CRYSTAL FORM OF ALLYL-CONTAINING METHYLPYRIDOPYRIMIDINE COMPOUND” (MEDSHINE DISCOVERY INC., priority 2022, published 2025) are IC50 values, retold here.

With `C=C[C@@H](Nc1nc(C)nc2cc(=O)n(C3(C(F)F)CC3)cc12)c1cccc(C(F)F)c1F` [Compounds as shown in formula (I)], the IC50 amounted to 91 nM in assay [1], 13 nM in assay [2] and 37 nM in assay [3].
